Results from ChEMBL document CHEMBL5724914, “Linking interpersonal differences in gut microbiota composition and drug biotransformation activity” (2024).

Key:
[1] = human gut metagenome, 24 h, 2 µM
[2] = human gut metagenome, 24 h, 2 µM; remark: listed apart in the source
[3] = human gut metagenome, 24 h, 2 µM; remark: listed apart in the source
[4] = human gut metagenome, 24 h, 2 µM; remark: listed apart in the source
[5] = human gut metagenome, 24 h, 2 µM; remark: listed apart in the source
[6] = (§1) The drug is tested on Z-003 corresponding to pig gut metagenome with ENA study accession number: PRJEB37062 and ENA sample accession number: ERS12561803 for biotransformation under anaerobic condition. The drug concentrations were measured over 9 timepoints collected between 0 and 24 hours of incubation by liquid-chromatography-coupled mass spectrometry (LC–MS); details: 2 µM
[7] = as §1, with “WLS-038” for “Z-003”, “human” for “pig”, “ERS12561745” for “ERS12561803”; details: 2 µM
[8] = human gut metagenome, 24 h, 2 µM; remark: listed apart in the source
[9] = human gut metagenome, 24 h, 2 µM; remark: listed apart in the source
[10] = as §1, with “Z-009” for “Z-003”, “ERS12561809” for “ERS12561803”; details: 2 µM
[11] = as §1, with “WLS-370” for “Z-003”, “human” for “pig”, “ERS12561793” for “ERS12561803”; details: 2 µM
[12] = as §1, with “Z-005” for “Z-003”, “to” for “to pig gut”, “ERS12561805” for “ERS12561803”; details: 2 µM
[13] = human gut metagenome, 24 h, 2 µM; remark: listed apart in the source
[14] = human gut metagenome, 24 h, 2 µM; remark: listed apart in the source
[15] = as §1, with “Z-020” for “Z-003”, “rabbit” for “pig”, “ERS12561819” for “ERS12561803”; details: 2 µM
[16] = as §1, with “WLS-098” for “Z-003”, “human” for “pig”, “ERS12561754” for “ERS12561803”; details: 2 µM
[17] = human gut metagenome, 24 h, 2 µM; remark: listed apart in the source
[18] = human gut metagenome, 24 h, 2 µM; remark: listed apart in the source
[19] = as §1, with “WLS-090” for “Z-003”, “human” for “pig”, “ERS12561753” for “ERS12561803”; details: 2 µM
[20] = human gut metagenome, 24 h, 2 µM; remark: listed apart in the source
Note: call rule not given here.

Structure (SMILES): COC1=C(OC)C(=O)C(CCCCCCCCCCO)=C(C)C1=O [IDEBENONE]
- Bacterial Biotransformation [1]: Compound metabolized
- Bacterial Biotransformation [2]: Compound metabolized
- Bacterial Biotransformation [3]: Compound metabolized
- Bacterial Biotransformation [4]: Compound NOT metabolized
- Bacterial Biotransformation [5]: Compound metabolized
- Bacterial Biotransformation [6]: Compound metabolized
- Bacterial Biotransformation [7]: Compound metabolized
- Bacterial Biotransformation [8]: Compound metabolized
- Bacterial Biotransformation [9]: Compound metabolized
- Bacterial Biotransformation [10]: Compound metabolized
- Bacterial Biotransformation [11]: Compound metabolized
- Bacterial Biotransformation [12]: Compound metabolized
- Bacterial Biotransformation [13]: Compound metabolized
- Bacterial Biotransformation [14]: Compound metabolized
- Bacterial Biotransformation [15]: Compound metabolized

Structure (SMILES): C#C[C@]1(OC(C)=O)CC[C@H]2[C@@H]3CCC4=CC(=O)CC[C@@H]4[C@H]3CC[C@@]21C [NORETHINDRONE ACETATE]
- Bacterial Biotransformation [1]: Compound metabolized
- Bacterial Biotransformation [3]: Compound metabolized
- Bacterial Biotransformation [4]: Compound NOT metabolized
- Bacterial Biotransformation [5]: Compound metabolized
- Bacterial Biotransformation [6]: Compound metabolized
- Bacterial Biotransformation [7]: Compound metabolized
- Bacterial Biotransformation [8]: Compound metabolized
- Bacterial Biotransformation [16]: Compound metabolized
- Bacterial Biotransformation [9]: Compound metabolized
- Bacterial Biotransformation [10]: Compound metabolized
- Bacterial Biotransformation [17]: Compound metabolized
- Bacterial Biotransformation [11]: Compound metabolized
- Bacterial Biotransformation [12]: Compound metabolized
- Bacterial Biotransformation [13]: Compound metabolized
- Bacterial Biotransformation [18]: Compound metabolized
- Bacterial Biotransformation [15]: Compound metabolized

Structure (SMILES): CC(=O)O[C@H]1C(=O)[C@@]2(C)[C@H]([C@H](OC(=O)c3ccccc3)[C@]3(O)C[C@H](OC(=O)[C@H](O)[C@@H](NC(=O)c4ccccc4)c4ccccc4)C(C)=C1C3(C)C)[C@]1(OC(C)=O)CO[C@@H]1C[C@@H]2O [PACLITAXEL]
- Bacterial Biotransformation [1]: Compound NOT metabolized
- Bacterial Biotransformation [3]: Compound NOT metabolized
- Bacterial Biotransformation [4]: Compound NOT metabolized
- Bacterial Biotransformation [5]: Compound NOT metabolized
- Bacterial Biotransformation [6]: Compound metabolized
- Bacterial Biotransformation [7]: Compound metabolized
- Bacterial Biotransformation [8]: Compound NOT metabolized
- Bacterial Biotransformation [16]: Compound NOT metabolized
- Bacterial Biotransformation [9]: Compound NOT metabolized
- Bacterial Biotransformation [10]: Compound metabolized
- Bacterial Biotransformation [17]: Compound NOT metabolized
- Bacterial Biotransformation [19]: Compound NOT metabolized
- Bacterial Biotransformation [11]: Compound NOT metabolized
- Bacterial Biotransformation [12]: Compound metabolized
- Bacterial Biotransformation [13]: Compound metabolized
- Bacterial Biotransformation [18]: Compound NOT metabolized
- Bacterial Biotransformation [15]: Compound metabolized

Structure (SMILES): O=C1C(CC[S+]([O-])c2ccccc2)C(=O)N(c2ccccc2)N1c1ccccc1 (configuration not stated) [SULFINPYRAZONE]
- Bacterial Biotransformation [1]: Compound metabolized
- Bacterial Biotransformation [2]: Compound metabolized
- Bacterial Biotransformation [3]: Compound metabolized
- Bacterial Biotransformation [4]: Compound metabolized
- Bacterial Biotransformation [5]: Compound metabolized
- Bacterial Biotransformation [6]: Compound metabolized
- Bacterial Biotransformation [20]: Compound metabolized
- Bacterial Biotransformation [7]: Compound metabolized
- Bacterial Biotransformation [8]: Compound metabolized
- Bacterial Biotransformation [16]: Compound metabolized
- Bacterial Biotransformation [9]: Compound metabolized
- Bacterial Biotransformation [10]: Compound metabolized
- Bacterial Biotransformation [17]: Compound metabolized
- Bacterial Biotransformation [19]: Compound metabolized
- Bacterial Biotransformation [11]: Compound metabolized
- Bacterial Biotransformation [13]: Compound metabolized
- Bacterial Biotransformation [18]: Compound metabolized
- Bacterial Biotransformation [14]: Compound metabolized
- Bacterial Biotransformation [15]: Compound NOT metabolized

Structure (SMILES): CCCCCNC(=N)N/N=C/c1c[nH]c2ccc(OC)cc12.O=C(O)/C=C\C(=O)O [TEGASEROD MALEATE]
- Bacterial Biotransformation [1]: Compound NOT metabolized
- Bacterial Biotransformation [2]: Compound metabolized
- Bacterial Biotransformation [3]: Compound NOT metabolized
- Bacterial Biotransformation [5]: Compound NOT metabolized
- Bacterial Biotransformation [6]: Compound NOT metabolized
- Bacterial Biotransformation [8]: Compound NOT metabolized
- Bacterial Biotransformation [16]: Compound NOT metabolized
- Bacterial Biotransformation [9]: Compound NOT metabolized
- Bacterial Biotransformation [10]: Compound metabolized
- Bacterial Biotransformation [17]: Compound NOT metabolized
- Bacterial Biotransformation [19]: Compound metabolized
- Bacterial Biotransformation [11]: Compound NOT metabolized
- Bacterial Biotransformation [12]: Compound NOT metabolized
- Bacterial Biotransformation [18]: Compound NOT metabolized
- Bacterial Biotransformation [14]: Compound metabolized
